Reference: patent US8436180B2, “Substituted-4-aryl-1,4-dihydro-1,6-naphthyridinamides and use thereof” (Bayer Intellectual Property GmbH, priority 2007, dated 2013)

Experiments:
[1] = target: T1, human mineralocorticoid receptor (MR) (Homo sapiens, UniProt P08235); experiment: Cellular in vitro assay to determine the inhibitory MR activity (GAL4-MR chimera luciferase reporter in CHO K1 cells); type: cell-based; conditions: antagonism of aldosterone-stimulated luciferase activity
T1 construct: expressed in transfected cells; host or cells: CHO K1 (Chinese hamster ovary), stably transfected
T1 sequence (P08235 734-984 limits assumed): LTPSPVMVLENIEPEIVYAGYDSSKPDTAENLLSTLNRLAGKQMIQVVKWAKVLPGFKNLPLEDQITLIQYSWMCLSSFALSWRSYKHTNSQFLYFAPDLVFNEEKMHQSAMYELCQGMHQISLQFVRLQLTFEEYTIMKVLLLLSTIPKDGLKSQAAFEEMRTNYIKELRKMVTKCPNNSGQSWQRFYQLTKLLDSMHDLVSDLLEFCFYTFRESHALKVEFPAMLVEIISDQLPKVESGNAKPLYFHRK
Description: 1. Cellular In Vitro Assay to Determine the Inhibitory MR Activity and MR Selectivity Compared with Other Steroid Hormone Receptors
Antagonists of the human mineralocorticoid receptor (MR) are identified, and the activity of the compounds described herein is quantified with the aid of a recombinant cell line. The cell is originally derived from a hamster ovary epithelial cell (Chinese Hamster Ovary, CHO K1, ATCC: American Type Culture Collection, VA 20108, USA).
An established chimera system in which the ligand-binding domains of human steroid hormone receptors are fused to the DNA-binding domain of the yeast transcription factor GAL4 is used in this CHO K1 cell line. The GAL4-steroid hormone receptor chimeras produced in this way are cotransfected and stably expressed with a reporter construct in the CHO cells.
To generate the GAL4-steroid hormone receptor chimeras, the GAL4 DNA binding domain (amino acids 1-147) from the vector pFC2-dbd (from Stratagene) is cloned with the PCR-amplified ligand-binding domains of the mineralocorticoid receptor (MR, amino acids 734-985), of the glucocorticoid receptor (GR, amino acids 443-777), of the progesterone receptor (PR, amino acids 680-933) and of the androgen receptor (AR, amino acids 667-919) into the vector pIRES2 (from Clontech). […]
The MR, GR, PR and AR cells are plated out in medium (Optimem, 2.5% FCS, 2 mM glutamine, 10 mM HEPES) in 96- (or 384- or 1536-) well microtiter plates on the day before the assay and are kept in a cell incubator (96% humidity, 5% v/v CO2, 37° C.). […] After a further incubation time of 5 to 6 hours, the luciferase activity is measured with the aid of a video camera. The measured relative light units as a function of the substance concentration result in a sigmoidal stimulation curve. The IC50 values are calculated with the aid of the GraphPad PRISM computer program (Version 3.02).

[2] = tested on: aldosterone-induced sodium retention; experiment: In vivo assay for detecting anti-mineralocorticoid activity on anesthetized dogs; design: species or system dog; conditions: anesthetized dogs under continuous aldosterone infusion (0.6 μg/kg/h); positive control
Description: In Vivo Assay for Detecting Anti-Mineralocorticoid Activity on Anesthetized Dogs
Male or female mongrel dogs (mongrels, Marshall BioResources, USA) with a weight between 20 and 30 kilograms are anesthetized with pentobarbital (30 mg/kg intravenously; Narcoren®, Merial, Germany). Alcuronium chloride (3 mg/animal intravenously; Alloferin®, ICN Pharmaceuticals, Germany) is used in addition as muscle relaxant. The dogs are intubated and ventilated with an oxygen/ambient air mixture (40/60 Vol.-%) (about 5-6 liters/min). The ventilation takes place with a ventilator supplied by Draeger (Sulla 808) and is monitored with a CO2 analyzer (from Engstrom). […]
The primary aim of the test is to investigate the effect of test compounds with antimineralocorticoid receptor activity on the aldosterone-induced sodium retention. […] A continuous infusion of aldosterone (0.6 μg/kg/h) leads after 3 hours to a decrease in the sodium/potassium ratio in the urine (sodium and potassium are determined by flame photometry). […]
The primary signals are amplified if necessary (Gould amplifier, Gould Instrument Systems, Valley View, USA or Edwards Vigilance-Monitor, Edwards, Irvine, USA) and subsequently fed into the Ponemah system (DataSciences Inc., Minneapolis, USA) for analysis. The signals are recorded continuously throughout the test period, further processed digitally by this software and averaged over 30 seconds.

Compound	IC50 [1] [nM]	sodium/potassium ratio in the urine [2]
CCOc1ncc(C)c2c1C(c1ccc(C#N)cc1OC)C(C(N)=O)=C(C)N2 (racemic) [Example 4, 4-(4-Cyano-2-methoxyphenyl)-5-ethoxy-2,8-dimethyl-1,4-dihydro-1,6-naphthyridine-3-carboxamide]	23	–
CCOc1ncc(C)c2c1[C@H](c1ccc(C#N)cc1OC)C(C(N)=O)=C(C)N2 [5 [(−)-enantiomer]]	16	–
CCOc1nccc2c1C(c1ccc(C#N)cc1OC)C(C(N)=O)=C(C)N2 (stereo not shown) [Example 1, 4-(4-Cyano-2-methoxyphenyl)-5-ethoxy-2-methyl-1,4-dihydro-1,6-naphthyridine-3-carboxamide]	35	–
CC(=O)S[C@@H]1CC2=CC(=O)CC[C@]2(C)[C@H]2CC[C@@]3(C)[C@@H](CC[C@@]34CCC(=O)O4)[C@H]12 [Spironolactone]	–	increases the sodium/potassium ratio in the urine dose-dependently
